Measured values reported in article PMC12216184 (Nature Communications, 2025).
Non-standard residues stand in square brackets, D forms with d. No end group written: not given here.

How the values were obtained:
[1] = biological target: p53^TAD2 phosphorylated at Ser46 and Thr55 (human) (UniProt P04637); experiment: ITC
[2] = biological target: N-terminal p53 region from amino acids 1 to 94 (p53^1-94) (human) (UniProt P04637); experiment: ITC
[3] = biological target: p53^TAD2 (residues 37-57), synthetic peptide (human) (UniProt P04637); experiment: ITC
[4] = biological target: p53^TAD2 phosphorylated at Ser46 (human) (UniProt P04637); experiment: ITC
[5] = biological target: p53^TAD2 phosphorylated at Thr55 (human) (UniProt P04637); experiment: ITC
[6] = system: endogenous p53 versus p53^ΔTAD2 in RPE-1 cells; experiment: Pull-down of endogenous p53 versus p53^ΔTAD2 from RPE-1 cells; assay type: binding, human; conditions: biotinylated bait (26 µM FOXO-FH or 125 µM biotinylated peptide CLO4201) on streptavidin agarose, 1 mg/mL RPE-1 lysate, 4 °C, Western blot, triplicates
Source text: Then, cells were selected by blasticidin for 10 days. Cells, which were expressing 3HA-GFP-miniturbo, p53-3HA-GFP-miniturbo-p53 and p53-Δtad2-3HA-GFP-miniturbo were sorted by FACS using GFP (Supplementary Fig. 17).
p53 mutant human TERT-immortalized retinal pigment epithelial 1 (RPE1) cells (RPE1 TP53^−/−; denoted RPE-1 p53KO) cells were kindly provided by Joanna Loizou (CeMM Research Center for Molecular Medicine of the Austrian Academy of Sciences, Vienna, Austria)[48]. […] For the preparation of cell lysates for pull down experiments, cells were grown to confluence and incubated with 10 µM Etoposide (Sigma) for 24 h. Cells were harvested in ice cold PBS pH 7.4 and lysed in lysis buffer (10 mM Tris pH 7.4, 1% IGEPAL®CA-630, 0.1% SDS, 140 mM NaCl, 2 mM MgCl2) supplemented with protease inhibitor cocktail, Benzonase (Merck Millipore) and RNase (molecular biology, Thermo Fisher). Samples were incubated on ice for 20 min, lysed by sonication and centrifuged for 15 min at 24,104 g and 4 °C. Pellets were discarded. Protein amount of lysates was determined by BCA protein assay. Lysates were then diluted to a protein concentration of 1 mg/mL in ice-cold dilution buffer (10 mM Tris pH 7.4, 1% IGEPAL®CA-630, 0.1% SDS, 140 mM NaCl, 2 mM EDTA) supplemented with protease inhibitor cocktail. […]

p53^1–94 [7] = experiment: NMR secondary chemical shifts and relaxation (15N{1H} NOE, R1, R2) of p53^1–94; assay type: binding, human; conditions: 300 µM p53^1–94 with 400 µM ligand, pH 7.5
Description: Data analysis von R1 and R1ρ measurements were performed using CcpNMR 2.5[49]. As fitting function, the following equation was used2 Mzt=M0^−Rit+C where Mz(t) is the longitudinal relaxation at the recovery delay time t, M0 is the equilibrium magnetization and Ri is either the longitudinal relaxation rate R1 or R1ρ. The transverse relaxation in the rotating frame R1ρ was then converted to R2 as described previously[50],[51] using the formula3 R1ρ=R1cos^2θ+R2sin^2θ in which θ = arctan(1/Ω) is the tilt angle between the static magnetic field and the effective field in the rotating frame.

p53^1–94 [8] = experiment: 1H,15N HSQC NMR titration of 15N-labeled p53^1–94 (CSP); assay type: binding, human; conditions: 15N-labeled p53^1–94, NMR titration
Description: (§1) All NMR spectra were recorded at 298 K either on a 700 MHz Bruker Avance III NMR spectrometer equipped with a TCI cryoprobe or on a 600 MHz Bruker Avance Neo NMR spectrometer equipped with a TXI 600S3 probehead at 298 K. All samples were in 50 mM NaH2PO4/Na2HPO4, pH 7.5 and 10 % D2O was added for the lock. Chemical shifts of the recombinant FOXO4-LRI were assigned using the following three-dimensional spectra: HNCACB, CBCA(CO)NH, (HN)N(CA)NNH, HN(NCA)NNH and (H)CC(CO)NH.
(§2) The CSPs were calculated according to the following equation:1 CSP=δH^2+ΔδN^2/7 where ΔδH and ΔδN indicate the chemical shift changes of the amide proton and nitrogen, respectively, using CcpNMR 2.5[49].

p53^TAD2pS46 = biological target: T1, p53^TAD2pS46 (Homo sapiens, UniProt P04637); experiment: ITC, p53^TAD2pS46; assay type: binding
T1 construct: purchased Peptide Specialty Laboratories GmbH

p53^TAD2pT55 = biological target: T2, p53^TAD2pT55 (Homo sapiens, UniProt P04637); experiment: ITC, p53^TAD2pT55; assay type: binding
T2 construct: purchased Peptide Specialty Laboratories GmbH

p53^1-94 = biological target: T3, p53^1-94 (Homo sapiens, UniProt P04637); experiment: ITC, p53^1-94; assay type: binding
T3 construct: His6-protein A (TEV cleavage site) (cleaved yes); made in house; host or cells: Escherichia coli BL21-DE3 Star

p53^TAD2pS46T55 = biological target: T4, p53^TAD2pS46T55 (Homo sapiens, UniProt P04637); experiment: ITC, p53^TAD2pS46T55; assay type: binding
T4 construct: purchased Peptide Specialty Laboratories GmbH

p53^TAD2 = biological target: T5, p53^TAD2 (Homo sapiens, UniProt P04637); experiment: ITC, p53^TAD2; assay type: binding
T5 construct: purchased Peptide Specialty Laboratories GmbH

FOXO4^CR3 = experiment: 1H,15N HSQC NMR titration of 15N-labeled FOXO4^CR3 (CSP); assay type: binding, human; conditions: 15N-labeled FOXO4^CR3, NMR titration with p53^DBD
Description: as §1, §2

FOXO4^FH = experiment: 1H,15N HSQC NMR titration of 15N-labeled FOXO4^FH (CSP); assay type: binding, human; conditions: one equivalent of phosphopeptide versus p53^TAD2, 15N-labeled FOXO4^FH
Description: as §1, §2

T1 sequence (P04637 37-57): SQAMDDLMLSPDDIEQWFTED
T3 sequence (P04637 1-94): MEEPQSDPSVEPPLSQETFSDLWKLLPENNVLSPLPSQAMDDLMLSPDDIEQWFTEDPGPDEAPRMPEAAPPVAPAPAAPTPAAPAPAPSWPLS
Chain of N-terminal p53 region from amino acids 1 to 94 (p53^1-94) (human) (P04637 1-94): as above

Question: Which results are given for “FOXO4-DRI (D-retro-inverso cell-penetrating peptide derived from the FOXO4 FH domain, fused to HIV-TAT)”?
Answer: dH [1]: -4.5 kcal/mol; stoichiometry N [1]: 1.11; dH [2]: 5.9 kcal/mol; stoichiometry N [2]: 0.9; dH [3]: 0.2 kcal/mol; stoichiometry N [3]: 0.9; dH [4]: -1.8 kcal/mol; stoichiometry N [4]: 0.71; dH [5]: -4.7 kcal/mol; stoichiometry N [5]: 0.74

Question: Which “pull-down of endogenous p53 versus p53^ΔTAD2” value [6] does the source give for “FOXO4^FH: FOXO4 forkhead domain fragment, amino acids 86–208” here?
Answer: Its value is “higher amounts of endogenous p53 versus p53^ΔTAD2”.

Question: What about the “15N{1H} NOE change” value (p53^1–94 [7]) of the same substance?
Answer: The value was “increased substantially in the presence of FOXO4^FH”.

Question: And the “R1 relaxation rate change” value (p53^1–94 [7])?
Answer: The value was “highly similar”.

Question: And the “most affected residues of p53 (CSP)” value (p53^1–94 [8])?
Answer: Its value is “region from amino acids 45 to 57”.

Question: With “[dL][dT][dL][dR][dK][dE][dP][dA][dS][dE][dI][dA][dQ][dS][dI][dL][dE][dA][dY][dS][dQ][dN]G[dW][dA][dN][dR][dR][dS]GG[dK][dR][dP][dP][dP][dR][dR][dR][dQ][dR][dR][dK][dK][dR]G [FOXO4-DRI]” as the substance, how does the Kd (p53^TAD2pS46) read?
Answer: The Kd was 10.5 ± 1.5 µM.

Question: And the Kd (p53^TAD2pT55)?
Answer: The Kd was 5.8 ± 1.2 µM.

Question: What about the Kd (p53^1-94) of the same substance?
Answer: The Kd was 0.4 ± 0.3 µM.

Question: What about the Kd (p53^TAD2pS46T55) of the same substance?
Answer: The Kd was 4.9 ± 0.3 µM.

Question: What about the Kd (p53^TAD2) of the same substance?
Answer: Its Kd is 18.5 ± 3.6 µM.

Question: “p53^DBD: human p53 DNA-binding domain fragment, amino acids 94–312” was tested. Which “most affected residues of FOXO4^CR3 (CSP)” value (FOXO4^CR3) did it give?
Answer: The value was “between FOXO4 amino acids 473 and 491”.

Question: Which “effect of phosphorylation on CSPs of FOXO4^FH” value (FOXO4^FH) does the source give for “p53^TAD2pS46: p53^TAD2 peptide phosphorylated at Ser46” here?
Answer: The value was “stronger CSPs”.

Question: With “p53^TAD2pT55: p53^TAD2 peptide phosphorylated at Thr55” as the substance, how does the “effect of phosphorylation on CSPs of FOXO4^FH” value (FOXO4^FH) read?
Answer: Its value is “stronger CSPs”.
